# The supplement of paper PMC4862054
# Several values for one entry are separate records, joined by “and”; a condition that tells them apart may be missing. Identical values can stand only once.
# What was measured:
# Settings in all cases: incubation time: 72 h
# DU-4475 [1] = assay: normalised response (% of control), CellTiter-Glo; higher = more viable cells (100 = DMSO, 0 = benzethonium chloride kill control)
# How it was run: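 For each plate, 0.1 % DMSO was set to 100 and a positive kill control to 0. Breast cancer cell lines (20 µl suspension) were seeded into 384-well plates already holding compound at 5 concentrations in 10-fold steps over a 10,000-fold range chosen per compound, and incubated for 72 h. CellTox Green fluorescence at 485/520 nm was read before CellTiter-Glo luminescence, which followed 10 min at room temperature. Each value is the normalised signal at one concentration.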
# CAL-51 [2] = assay: normalised viability (% of control), CellTiter-Blue; higher = more viable cells (about 100 = DMSO control)
# How it was run: (§1)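 Normalised viability is given for a single listed concentration of the series. In 384-well plates, breast cancer cell lines were incubated 72 h with compound, then read with CellTiter-Blue (2 h, 37 °C) at 560/590 nm. Per-plate scaling set vehicle to 100 and a positive kill control to 0, with Z'-factor quality control.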
# MDA-MB-453 [3] = assay: as above
# How it was run: as §1
# DU-4475 [4] = assay: as above
# How it was run: as §1
# HDQ-P1 [5] = assay: as above
# How it was run: as §1
# MFM-223 = assay: normalised response (% of control), CellTiter-Glo; higher = more viable cells (100 = DMSO, 0 = benzethonium chloride kill control)
# Description: (§2)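 DSRT, 72 h incubation, CellTox Green / CellTiter-Glo readout. Signal is normalised to DMSO and benzethonium chloride controls. Value is the normalised response at the highest dose.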
# SK-BR-3 = assay: as above
# Description: as §2
# MDA-MB-231 = assay: as above
# Description: as §2
# BT-549 = assay: as above
# Description: as §2
# HCC1599 = assay: as above
# Description: as §2
# CAL-51 [6] = assay: as above
# Description: as §2
# MDA-MB-436 = assay: as above
# Description: as §2
# MCF-10A = assay: as above
# Description: as §2
# MDA-MB-453 [7] = assay: as above
# Description: as §2
# BT-474 = assay: as above
# Description: as §2
# HCC1937 = assay: as above
# Description: as §2
# CAL-85-1 = assay: as above
# Description: as §2
# DU-4475 [8] = assay: as above; remark: listed apart in the source
# Description: as §2
# CAL-148 = assay: as above
# Description: as §2
# Hs578T = assay: as above
# Description: as §2
# MDA-MB-468 = assay: as above
# Description: as §2
# CAL-120 = assay: as above
# Description: as §2
# HCC1143 = assay: as above
# Description: as §2
# HDQ-P1 [9] = assay: as above
# Description: as §2
structure (smiles),measurement,setting,value
Cc1c(N)nc([C@H](CC(N)=O)NC[C@H](N)C(N)=O)nc1C(=O)N[C@H](C(=O)N[C@H](C)[C@@H](O)[C@H](C)C(=O)N[C@H](C(=O)NCCc1nc(-c2nc(C(=O)NCCC[S+](C)C)cs2)cs1)[C@@H](C)O)[C@@H](OC1OC(CO)C(O)C(O)C1OC1OC(CO)C(O)C(OC(N)=O)C1O)c1cnc[nH]1 (some centres not stated) [Bleomycin] (1000 nM),normalised response,DU-4475 [1],92.1%
Cc1c(N)nc([C@H](CC(N)=O)NC[C@H](N)C(N)=O)nc1C(=O)N[C@H](C(=O)N[C@H](C)[C@@H](O)[C@H](C)C(=O)N[C@H](C(=O)NCCc1nc(-c2nc(C(=O)NCCC[S+](C)C)cs2)cs1)[C@@H](C)O)[C@@H](OC1OC(CO)C(O)C(O)C1OC1OC(CO)C(O)C(OC(N)=O)C1O)c1cnc[nH]1 (some centres not stated) [Bleomycin] (10000 nM),normalised viability,CAL-51 [2],51.7%
same,normalised viability,MDA-MB-453 [3],94.2%
same,normalised viability,DU-4475 [4],98.7%
same,normalised viability,HDQ-P1 [5],64.7%
same,normalised response,MFM-223,108%
same,normalised response,SK-BR-3,67.4%
same,normalised response,MDA-MB-231,74.8%
same,normalised response,BT-549,32.6%
same,normalised response,HCC1599,88.7%
same,normalised response,CAL-51 [6],37.9%
same,normalised response,MDA-MB-436,39.1%
same,normalised response,MCF-10A,53%
same,normalised response,MDA-MB-453 [7],124%
same,normalised response,BT-474,65.3%
same,normalised response,HCC1937,45.8%
same,normalised response,CAL-85-1,64.3%
same,normalised response,DU-4475 [8],78.9%
same,normalised response,CAL-148,63.3%
same,normalised response,Hs578T,69.6%
same,normalised response,MDA-MB-468,48.8%
same,normalised response,CAL-120,80.9%
same,normalised response,HCC1143,48.5%
same,normalised response,HDQ-P1 [9],78.5%
Cc1cc2c(F)c(Oc3ncnn4cc(OC[C@@H](C)O)c(C)c34)ccc2[nH]1 [Brivanib] (100 nM),normalised response,DU-4475 [1],101%
Cc1cc2c(F)c(Oc3ncnn4cc(OC[C@@H](C)O)c(C)c34)ccc2[nH]1 [Brivanib] (1000 nM),normalised viability,CAL-51 [2],101%
same,normalised viability,MDA-MB-453 [3],99.1%
same,normalised viability,DU-4475 [4],107%
same,normalised viability,HDQ-P1 [5],117%
same,normalised response,MFM-223,110%
same,normalised response,SK-BR-3,113%
same,normalised response,MDA-MB-231,104%
same,normalised response,BT-549,98.3%
same,normalised response,HCC1599,104%
same,normalised response,CAL-51 [6],83%
same,normalised response,MDA-MB-436,112%
same,normalised response,MCF-10A,108%
same,normalised response,MDA-MB-453 [7],108%
same,normalised response,BT-474,108%
same,normalised response,HCC1937,95.1%
same,normalised response,CAL-85-1,93.4%
same,normalised response,DU-4475 [8],103%
same,normalised response,CAL-148,112%
same,normalised response,Hs578T,101%
same,normalised response,MDA-MB-468,107%
same,normalised response,CAL-120,112%
same,normalised response,HCC1143,100%
same,normalised response,HDQ-P1 [9],97.7%
CCCCCOC(=O)Nc1nc(=O)n([C@@H]2O[C@H](C)[C@@H](O)[C@H]2O)cc1F [Capecitabine] (1000 nM),normalised response,DU-4475 [1],98.6%
CCCCCOC(=O)Nc1nc(=O)n([C@@H]2O[C@H](C)[C@@H](O)[C@H]2O)cc1F [Capecitabine] (10000 nM),normalised viability,CAL-51 [2],88.9% and 91.6%
same,normalised viability,DU-4475 [4],88.5% and 90.4%
same,normalised viability,HDQ-P1 [5],105% and 87.3%
same,normalised response,MFM-223,102%
same,normalised response,SK-BR-3,74.5%
same,normalised response,MDA-MB-231,100%
same,normalised response,BT-549,108%
same,normalised response,HCC1599,90.4%
same,normalised response,CAL-51 [6],107%
same,normalised response,MDA-MB-436,78.6%
same,normalised response,MCF-10A,102%
same,normalised response,MDA-MB-453 [7],103%
same,normalised response,BT-474,95.3%
same,normalised response,HCC1937,107%
same,normalised response,CAL-85-1,56%
same,normalised response,DU-4475 [8],90.7%
same,normalised response,CAL-148,109%
same,normalised response,Hs578T,105%
same,normalised response,MDA-MB-468,104%
same,normalised response,CAL-120,98.5%
same,normalised response,HCC1143,92.8%
same,normalised response,HDQ-P1 [9],81.3%
CC(C)C[C@H](NC(=O)[C@H](CCc1ccccc1)NC(=O)CN1CCOCC1)C(=O)N[C@@H](Cc1ccccc1)C(=O)N[C@@H](CC(C)C)C(=O)[C@@]1(C)CO1 [Carfilzomib] (100 nM),normalised response,DU-4475 [1],14.6%
CC(C)C[C@H](NC(=O)[C@H](CCc1ccccc1)NC(=O)CN1CCOCC1)C(=O)N[C@@H](Cc1ccccc1)C(=O)N[C@@H](CC(C)C)C(=O)[C@@]1(C)CO1 [Carfilzomib] (1000 nM),normalised viability,CAL-51 [2],1.6%
same,normalised viability,MDA-MB-453 [3],12.3%
same,normalised viability,DU-4475 [4],2.97%
same,normalised viability,HDQ-P1 [5],0.68%
same,normalised response,MFM-223,6.19%
same,normalised response,SK-BR-3,2.94%
same,normalised response,MDA-MB-231,0.28%
same,normalised response,BT-549,2.23%
same,normalised response,HCC1599,8.99%
same,normalised response,CAL-51 [6],1.12%
same,normalised response,MDA-MB-436,2.1%
same,normalised response,MCF-10A,0.46%
same,normalised response,MDA-MB-453 [7],14.3%
same,normalised response,BT-474,6.38%
same,normalised response,HCC1937,2.47%
same,normalised response,CAL-85-1,1.03%
same,normalised response,DU-4475 [8],7.95%
same,normalised response,CAL-148,7.77%
same,normalised response,Hs578T,0.58%
same,normalised response,MDA-MB-468,1.29%
same,normalised response,CAL-120,1.88%
same,normalised response,HCC1143,5.78%
same,normalised response,HDQ-P1 [9],0.05%
Nc1nc(Cl)nc2c1ncn2[C@@H]1O[C@H](CO)[C@@H](O)[C@@H]1F [Clofarabine] (1000 nM),normalised response,DU-4475 [1],70.9%
CCN(CC)CCOc1ccc(C(=C(Cl)c2ccccc2)c2ccccc2)cc1 [Clomifene] (1000 nM),normalised response,DU-4475 [1],97.4%
C[C@@H]1C[C@H]2[C@@H]3CCC4=CC(=O)C=C[C@]4(C)[C@@]3(F)[C@@H](O)C[C@]2(C)[C@@]1(O)C(=O)CO [Dexamethasone] (1000 nM),normalised response,DU-4475 [1],96.2%
CC(C)C(=O)Nc1ccc([N+](=O)[O-])c(C(F)(F)F)c1 [Flutamide] (1000 nM),normalised response,DU-4475 [1],95.9%
COc1cc2c(Oc3ccc(NC(=O)C4(C(=O)Nc5ccc(F)cc5)CC4)cc3F)ccnc2cc1OCCCN1CCOCC1 [Foretinib] (100 nM),normalised response,DU-4475 [1],99.9%
NC(=O)NO [Hydroxyurea] (10000 nM),normalised response,DU-4475 [1],100%
O=NN(CCCl)C(=O)NC1CCCCC1 [Lomustine] (1000 nM),normalised response,DU-4475 [1],99.2%
O=C(O)CC[C@H]1CC[C@@](c2cc(F)ccc2F)(S(=O)(=O)c2ccc(Cl)cc2)CC1 [MK-0752] (100 nM),normalised response,DU-4475 [1],99.2%
NC1(c2ccc(-c3nc4ccn5c(=O)[nH]nc5c4cc3-c3ccccc3)cc2)CCC1 [MK-2206] (100 nM),normalised response,DU-4475 [1],97.5%
NC(=O)c1cccc2cn(-c3ccc([C@@H]4CCCNC4)cc3)nc12 [MK-4827] (1000 nM),normalised response,DU-4475 [1],86%
O=C(c1cc(Cc2n[nH]c(=O)c3ccccc23)ccc1F)N1CCN(C(=O)C2CC2)CC1 [Olaparib] (1000 nM),normalised response,DU-4475 [1],92.5%
CO[C@H](C(=O)[C@@H](O)[C@@H](C)O)[C@@H]1Cc2cc3cc(O[C@H]4C[C@@H](O[C@@H]5C[C@@H](O)[C@H](O)[C@@H](C)O5)[C@H](O)[C@@H](C)O4)c(C)c(O)c3c(O)c2C(=O)[C@H]1O[C@H]1C[C@@H](O[C@@H]2C[C@@H](O)[C@@H](O[C@@H]3C[C@](C)(O)[C@H](O)[C@@H](C)O3)[C@@H](C)O2)[C@H](O)[C@@H](C)O1 [Plicamycin] (1000 nM),normalised response,DU-4475 [1],99.2%
C[C@]12C=CC(=O)C=C1CC[C@@H]1[C@@H]2C(=O)C[C@@]2(C)[C@H]1CC[C@]2(O)C(=O)CO [Prednisone] (1000 nM),normalised response,DU-4475 [1],99%
CO[C@H]1C[C@@H]2CC[C@@H](C)[C@@](O)(O2)C(=O)C(=O)N2CCCC[C@H]2C(=O)O[C@H]([C@H](C)C[C@@H]2CC[C@@H](O)[C@H](OC)C2)CC(=O)[C@H](C)/C=C(\C)[C@@H](O)[C@@H](OC)C(=O)[C@H](C)C[C@H](C)/C=C/C=C/C=C/1C [Sirolimus] (100 nM),normalised response,MFM-223,64.9%
same,normalised response,SK-BR-3,57.4%
same,normalised response,MDA-MB-231,81.2%
same,normalised response,BT-549,54.1%
same,normalised response,HCC1599,95.8%
same,normalised response,CAL-51 [6],61.3%
same,normalised response,MDA-MB-436,73.9%
same,normalised response,MCF-10A,85.7%
same,normalised response,MDA-MB-453 [7],53.2%
same,normalised response,BT-474,78.8%
same,normalised response,HCC1937,66.9%
same,normalised response,CAL-85-1,60.5%
same,normalised response,DU-4475 [8],72.8%
same,normalised response,CAL-148,59.6%
same,normalised response,Hs578T,68.8%
same,normalised response,MDA-MB-468,53.4%
same,normalised response,CAL-120,64.5%
same,normalised response,HCC1143,62.4%
same,normalised response,HDQ-P1 [9],73.4%
CN1CCN(c2nc(C3=C(c4c[nH]c5ccccc45)C(=O)NC3=O)c3ccccc3n2)CC1 [Sotrastaurin] (1000 nM),normalised response,DU-4475 [1],86.4%
COc1cc2c(N3CCN(C(=O)Nc4ccc(OC(C)C)cc4)CC3)ncnc2cc1OCCCN1CCCCC1 [Tandutinib] (100 nM),normalised response,DU-4475 [1],99.7%
C[C@@H](C(=O)O)c1ccc(-c2ccccc2)c(F)c1 [Tarenflurbil] (1000 nM),normalised response,DU-4475 [1],94.6%
Cn1nnc2c(C(N)=O)ncn2c1=O [Temozolomide] (1000 nM),normalised response,DU-4475 [1],95%
CC[C@@H]1C(=O)N(C)c2cnc(Nc3ccc(C(=O)N[C@H]4CC[C@H](N5CCN(CC6CC6)CC5)CC4)cc3OC)nc2N1C(C)C [Volasertib] (100 nM),normalised response,DU-4475 [1],49.1%
